Reference: ChEMBL document CHEMBL5584308, “Total Synthesis and Anti-inflammatory Activity of Asperjinone and Asperimide C” (J Nat Prod, 2024)
Active and inactive are the calls of the source. The calls are words filed in the database; no cut-off is given here.

Tests used:
RPTEC [1] = experiment: Antiinflammatory activity in LPS-induced human RPTEC cells assessed as decrease in IL6 gene expression at 26 uM incubated for 24 hrs by qPCR analysis relative to control; format: functional; design: scale not given: the % may be the effect or the level left
RPTEC [2] = experiment: Antiinflammatory activity in LPS-induced human RPTEC cells assessed as decrease in IL-1beta gene expression at 26 uM incubated for 24 hrs by qPCR analysis relative to control; format: functional; design: scale not given: the % may be the effect or the level left
RPTEC [3] = experiment: Effect on iNOS gene expression in human RPTEC cells at 26 uM incubated for 24 hrs by qPCR analysis; format: functional, cell-based
RPTEC [4] = experiment: Antiinflammatory activity against LPS-induced human RPTEC cells assessed as reduction in COX-2 gene expression at 26 uM incubated for 24 hrs by qPCR analysis relative to control; format: functional; design: scale not given: the % may be the effect or the level left
RPTEC [5] = experiment: Upregulation of COX-2 gene expression in human RPTEC cells at 26 uM incubated for 24 hrs by qPCR analysis; format: functional, cell-based
RPTEC [6] = experiment: Antiinflammatory activity against LPS-induced human RPTEC cells assessed as reduction in nitrite level at 26 uM incubated for 24 hrs by microplate reader analysis relative to control; format: functional; design: scale not given: the % may be the effect or the level left
RPTEC [7] = experiment: Effect on total NO level in human RPTEC cells at 26 uM incubated for 24 hrs by microplate reader analysis; format: functional, cell-based
RPTEC [8] = experiment: Effect on nitrite level in human RPTEC cells at 26 uM incubated for 24 hrs by microplate reader analysis; format: functional, cell-based
RPTEC [9] = experiment: Cytotoxicity against human RPTEC cells assessed as reduction in cell viability at 26 uM incubated for 24 hrs in presence of LPS by MTT assay; format: toxicity, cell-based
RPTEC [10] = experiment: Upregulation of IL-6 gene expression in human RPTEC cells at 26 uM incubated for 24 hrs by qPCR analysis; format: functional, cell-based
RPTEC [11] = experiment: Antiinflammatory activity against LPS-induced human RPTEC cells assessed as reduction in iNOS gene expression at 26 uM incubated for 24 hrs by qPCR analysis relative to control; format: functional; design: scale not given: the % may be the effect or the level left
RPTEC [12] = experiment: Upregulation of IL-1beta gene expression in human RPTEC cells at 26 uM incubated for 24 hrs by qPCR analysis; format: functional, cell-based
RPTEC [13] = experiment: Cytotoxicity against human RPTEC cells assessed as reduction in cell viability at 26 uM incubated for 24 hrs in absence of LPS by MTT assay; format: toxicity, cell-based
RPTEC [14] = experiment: Antiinflammatory activity in LPS-induced human RPTEC cells assessed as downregulation of TNFalpha gene expression at 26 uM incubated for 24 hrs by qPCR analysis relative to control; format: functional
RPTEC [15] = experiment: Effect on nitrate level in human RPTEC cells at 26 uM incubated for 24 hrs by microplate reader analysis; format: functional, cell-based
RPTEC [16] = experiment: Antiinflammatory activity against LPS-induced human RPTEC cells assessed as reduction in total NO level at 26 uM incubated for 24 hrs by microplate reader analysis relative to control; format: functional; design: scale not given: the % may be the effect or the level left
RPTEC [17] = experiment: Effect on nitrate level in LPS-induced human RPTEC cells at 26 uM incubated for 24 hrs by microplate reader analysis; format: functional, cell-based
[18] = Downregulation of COX-2 gene expression in human RPTEC cells at 26 uM incubated for 24 hrs by qPCR analysis relative to control; format: functional
[19] = Downregulation of IL-1beta gene expression in human RPTEC cells at 26 uM incubated for 24 hrs by qPCR analysis relative to control; format: functional
[20] = Downregulation of TNF-alpha gene expression in human RPTEC cells at 26 uM incubated for 24 hrs by qPCR analysis relative to control; format: functional
RPTEC [21] = experiment: Effect on IL-6 gene expression in human RPTEC cells at 26 uM incubated for 24 hrs by qPCR analysis; format: functional, cell-based
RPTEC [22] = experiment: Effect on COX-2 gene expression in human RPTEC cells at 26 uM incubated for 24 hrs by qPCR analysis; format: functional, cell-based
RAW264.7 = experiment: Inhibition of NO production in LPS-induced mouse RAW264.7 cells incubated for 24 hrs by absorbance based assay; format: functional, cell-based; details: RAW264.7, 24 h
RPTEC [23] = experiment: Effect on IL-1beta gene expression in human RPTEC cells at 26 uM incubated for 24 hrs by qPCR analysis; format: functional, cell-based
RPTEC [24] = experiment: Effect on nitrate level in LPS-induced human RPTEC cells at 28 uM incubated for 24 hrs by microplate reader analysis; format: functional, cell-based
RPTEC [25] = experiment: Antiinflammatory activity in LPS-induced human RPTEC cells assessed as downregulation of TNFalpha gene expression at 28 uM incubated for 24 hrs by qPCR analysis relative to control; format: functional
RPTEC [26] = experiment: Antiinflammatory activity against LPS-induced human RPTEC cells assessed as reduction in nitrite level at 28 uM incubated for 24 hrs by microplate reader analysis relative to control; format: functional; design: scale not given: the % may be the effect or the level left
RPTEC [27] = experiment: Antiinflammatory activity against LPS-induced human RPTEC cells assessed as reduction in COX-2 gene expression at 28 uM incubated for 24 hrs by qPCR analysis relative to control; format: functional; design: scale not given: the % may be the effect or the level left
[28] = Downregulation of TNF-alpha gene expression in human RPTEC cells at 28 uM incubated for 24 hrs by qPCR analysis relative to control; format: functional
RPTEC [29] = experiment: Effect on COX-2 gene expression in human RPTEC cells at 28 uM incubated for 24 hrs by qPCR analysis; format: functional, cell-based
RPTEC [30] = experiment: Antiinflammatory activity in LPS-induced human RPTEC cells assessed as decrease in IL6 gene expression at 28 uM incubated for 24 hrs by qPCR analysis relative to control; format: functional; design: scale not given: the % may be the effect or the level left
RPTEC [31] = experiment: Antiinflammatory activity in LPS-induced human RPTEC cells assessed as decrease in IL-1beta gene expression at 28 uM incubated for 24 hrs by qPCR analysis relative to control; format: functional; design: scale not given: the % may be the effect or the level left
RPTEC [32] = experiment: Antiinflammatory activity against LPS-induced human RPTEC cells assessed as reduction in iNOS gene expression at 28 uM incubated for 24 hrs by qPCR analysis relative to control; format: functional; design: scale not given: the % may be the effect or the level left

CC1(C)Oc2ccc(CC3=C(c4ccc(O)cc4)C(=O)NC3=O)cc2CC1O (racemic)
Activity (RPTEC [1]): 44% | Activity (RPTEC [2]): 52% | Activity (RPTEC [3]): inactive | Activity (RPTEC [4]): 53% | Activity (RPTEC [5]): Active | Activity (RPTEC [6]): 45% | Activity (RPTEC [7]): inactive | Activity (RPTEC [8]): inactive | Activity (RPTEC [9]): Non-Toxic | Activity (RPTEC [10]): Active | Activity (RPTEC [11]): 57% | Activity (RPTEC [12]): Active | Activity (RPTEC [13]): Non-Toxic | Activity (RPTEC [14]): 44% | Activity (RPTEC [15]): inactive | Activity (RPTEC [16]): ~37% | Activity (RPTEC [17]): inactive

CC1(C)Oc2ccc(CC3=C(c4ccc(O)cc4)C(=O)OC3=O)cc2CC1O (stereo not given)
Activity (RPTEC [1]): 55% | Activity (RPTEC [2]): 61% | Activity (RPTEC [3]): inactive | Activity [18]: ~20% | Activity (RPTEC [4]): 61% | Activity (RPTEC [6]): 45% | Activity [19]: 24% | Activity (RPTEC [7]): inactive | Activity (RPTEC [8]): inactive | Activity (RPTEC [9]): Non-Toxic | Activity [20]: ~38% | Activity (RPTEC [21]): inactive | Activity (RPTEC [11]): 67% | Activity (RPTEC [13]): Non-Toxic | Activity (RPTEC [14]): 67% | Activity (RPTEC [15]): inactive | Activity (RPTEC [16]): ~35% | Activity (RPTEC [17]): inactive

CC1(C)Oc2ccc(CC3=C(c4ccc(O)cc4)C(=O)NC3=O)cc2C[C@@H]1O
Activity (RPTEC [1]): 39% | Activity (RPTEC [2]): 52% | Activity (RPTEC [3]): inactive | Activity (RPTEC [4]): 52% | Activity (RPTEC [22]): inactive | Activity (RPTEC [6]): 24% | Activity (RPTEC [7]): inactive | Activity (RPTEC [8]): inactive | Activity (RPTEC [9]): Non-Toxic | Activity (RPTEC [21]): inactive | Activity (RPTEC [11]): 52% | IC50 (RAW264.7): 0.78 µM | Activity (RPTEC [13]): Non-Toxic | Activity (RPTEC [14]): 58% | Activity (RPTEC [15]): inactive | Activity (RPTEC [16]): ~18% | Activity (RPTEC [23]): inactive | Activity (RPTEC [17]): inactive

COc1ccc2c(c1)c(CC(=O)O)c(C)n2C(=O)c1ccc(Cl)cc1 [INDOMETHACIN]
Activity (RPTEC [24]): inactive | Activity (RPTEC [25]): 64% | Activity (RPTEC [26]): 45% | Activity (RPTEC [27]): 61% | IC50 (RAW264.7): 37.5 µM | Activity [28]: ~38% | Activity (RPTEC [29]): inactive | Activity (RPTEC [30]): 57% | Activity (RPTEC [31]): 56% | Activity (RPTEC [32]): 59%

CC1(C)Oc2ccc(CC3=C(c4ccc(O)cc4)C(=O)OC3=O)cc2C[C@@H]1O
Activity (RPTEC [1]): 48% | Activity (RPTEC [2]): 52% | Activity (RPTEC [3]): inactive | Activity (RPTEC [4]): 49% | Activity (RPTEC [22]): inactive | Activity (RPTEC [6]): 45% | Activity (RPTEC [7]): inactive | Activity (RPTEC [8]): inactive | Activity (RPTEC [9]): Non-Toxic | Activity (RPTEC [21]): inactive | Activity (RPTEC [11]): 47% | Activity (RPTEC [13]): Non-Toxic | Activity (RPTEC [14]): 57% | Activity (RPTEC [15]): inactive | Activity (RPTEC [16]): ~33% | Activity (RPTEC [23]): inactive | Activity (RPTEC [17]): inactive
